Experiments:
[1] = Test B: Cytotoxicity Assay; format: cell-based; conditions: human, uninfected MT-4 cells, same protocol as Test A
Description: (§1) MT-4 cells were next mixed with HIV-IIIb at an m.o.i of 0.003 for 1 hour, after which time 35 μL of virus/cell mixture (2000 cells) was immediately added to each well containing 40 μL of diluted compound. The plates were then incubated at 37° C. for 5 days. […] Cell lysis was carried out by incubating at room temperature for 10 min and then chemiluminescence was read.
Test B: Cytotoxicity Assay
Compound cytotoxicity and the corresponding CC50 values was determined using the same protocol as described in the antiviral assay (Test A) except that uninfected cells were used.

[2] = system: HIV-IIIb; assay: Test A: Antiviral Assay in MT4 Cells; format: cell-based, HIV-1; conditions: Human immunodeficiency virus 1, IIIB, MT4, 120 h; for inhibition at 0.2 µM: read-out: % inhibition at 0.2 μM; for inhibition at 2 µM: read-out: % inhibition at 2 μM
Description: Test A: Antiviral Assay in MT4 Cells
as §1

Structure (SMILES)	CC50 at 5 days [1] [µM]	inhibition at 0.2 µM [2] [%]	inhibition at 2 µM [2] [%]
Cn1nc(NS(C)(=O)=O)c2cccc(-c3ccc(C#CC(C)(C)O)nc3[C@H](Cc3cc(F)cc(F)c3)NC(=O)Cn3nc(C(F)F)c4c3C(F)(F)CCC4(F)F)c21 [Compound 42, (S)-2-(3-(difluoromethyl)-4,4,7,7-tetrafluoro-4,5,6,7-tetrahydro-1H-indazol-1-yl)-N-(2-(3,5-difluorophenyl)-1-(6-(3-hydroxy-3-methylbut-1-yn-1-yl)-3-(1-methyl-3-(methylsulfonamido)-1H-indazol-7-yl)pyridin-2-yl)ethyl)acetamide]	11.8	100	100
Cn1nc(NS(C)(=O)=O)c2c(Cl)ccc(-c3cc(C(N)=O)cnc3[C@H](Cc3cc(F)cc(F)c3)NC(=O)Cn3nc(C(F)F)c4c3C(F)(F)[C@@H]3C[C@H]43)c21 [Compound 186D, 5-(4-chloro-1-methyl-3-(methylsulfonamido)-1H-indazol-7-yl)-6-((S)-1-(2-((3bS,4aR)-3-(difluoromethyl)-5,5-difluoro-3b,4,4a,5-tetrahydro-1H-cyclopropa[3,4]cyclopenta[1,2-c]pyrazol-1-yl)acetamido)-2-(3,5-difluorophenyl)ethyl)nicotinamide]	1.52	87	87
CC(C)(O)C#Cc1ccc(-c2ccc3[nH]nc(N)c3c2)c([C@H](Cc2cc(F)cc(F)c2)NC(=O)Cn2nc(C(F)(F)F)c3c2C(F)(F)[C@@H]2C[C@H]32)n1 [Compound 46, N—((S)-1-(3-(3-amino-1H-indazol-5-yl)-6-(3-hydroxy-3-methylbut-1-yn-1-yl)pyridin-2-yl)-2-(3,5-difluorophenyl)ethyl)-2-((3b-S,4aR)-5,5-difluoro-3-(trifluoromethyl)-3b,4,4a,5-tetrahydro-1H-cyclopropa[3,4]cyclopenta[1,2-c]pyrazol-1-yl)acetamide]	10.5	87	89
Cn1nc(NC(=O)C(F)(F)F)c2c(Cl)ccc(-c3ccc(C#CC(C)(C)O)nc3[C@H](Cc3cc(F)cc(F)c3)NC(=O)Cn3nc(C(F)F)c4c3C(F)(F)[C@@H]3C[C@H]43)c21 [Compound 98, N-(4-chloro-7-(2-((S)-1-(2-((3bS,4aR)-3-(difluoromethyl)-5,5-difluoro-3b,4,4a,5-tetrahydro-1H-cyclopropa[3,4]cyclopenta[1,2-c]pyrazol-1-yl)acetamido)-2-(3,5-difluorophenyl)ethyl)-6-(3-hydroxy-3-methylbut-1-yn-1-yl)pyridin-3-yl)-1-methyl-1H-indazol-3-yl)-2,2,2-trifluoroacetamide]	8.41	100	100
CN1CCN(S(=O)(=O)Nc2nn(C)c3c(-c4ccc(C#CC(C)(C)O)nc4[C@H](Cc4cc(F)cc(F)c4)NC(=O)Cn4nc(C(F)(F)F)c5c4C(F)(F)[C@@H]4C[C@H]54)cccc23)CC1 [Compound 56F, 2-((3bS,4aR)-5,5-difluoro-3-(trifluoromethyl)-3b,4,4a,5-tetrahydro-1H-cyclopropa[3,4]cyclopenta[1,2-c]pyrazol-1-yl)-N—((S)-2-(3,5-difluorophenyl)-1-(6-(3-hydroxy-3-methylbut-1-yn-1-yl)-3-(1-methyl-3-(4-methylpiperazine-1-sulfonamido)-1H-indazol-7-yl)pyridin-2-yl)ethyl)acetamide]	19	97	97
CC(C)(O)C#Cc1ccc(-c2ccc(Cl)c3c(NS(C)(=O)=O)n[nH]c23)c([C@H](Cc2cc(F)cc(F)c2)NC(=O)Cn2nc(C(F)(F)F)c3c2C(F)(F)[C@@H]2C[C@H]32)n1 [Compound 109, N—((S)-1-(3-(4-chloro-3-(methylsulfonamido)-1H-indazol-7-yl)-6-(3-hydroxy-3-methylbut-1-yn-1-yl)pyridin-2-yl)-2-(3,5-difluorophenyl)ethyl)-2-((3b-S,4aR)-5,5-difluoro-3-(trifluoromethyl)-3b,4,4a,5-tetrahydro-1H-cyclopropa[3,4]cyclopenta[1,2-c]pyrazol-1-yl)acetamide]	29.6	97	97
CNc1nn(C)c2c(-c3ccc(C#CC(C)(C)O)nc3[C@H](Cc3cc(F)cc(F)c3)NC(=O)Cn3nc(C(F)F)c4c3C(F)(F)[C@@H]3C[C@H]43)cccc12 [Compound 68G, 2-((3b-S,4aR)-3-(difluoromethyl)-5,5-difluoro-3b,4,4a,5-tetrahydro-1H-cyclopropa[3,4]cyclopenta[1,2-c]pyrazol-1-yl)-N—((S)-2-(3,5-difluorophenyl)-1-(6-(3-hydroxy-3-methylbut-1-yn-1-yl)-3-(1-methyl-3-(methylamino)-1H-indazol-7-yl)pyridin-2-yl)ethyl)acetamide]	9.64	96	96
Cn1nc(NS(C)(=O)=O)c2c(Cl)ccc(-c3ccc(C#CC(C)(C)O)nc3[C@H](Cc3cc(F)cc(F)c3)NC(=O)Cn3nc(I)c4c3C(F)(F)[C@@H]3C[C@H]43)c21 [Compound 160, N—((S)-1-(3-(4-chloro-1-methyl-3-(methylsulfonamido)-1H-indazol-7-yl)-6-(3-hydroxy-3-methylbut-1-yn-1-yl)pyridin-2-yl)-2-(3,5-difluorophenyl)ethyl)-2-((3bS,4aR)-5,5-difluoro-3-iodo-3b,4,4a,5-tetrahydro-1H-cyclopropa[3,4]cyclopenta[1,2-c]pyrazol-1-yl)acetamide]	20.5	100	100
Cn1nc(NS(C)(=O)=O)c2c(Cl)ccc(-c3ccc(C#CC(C)(C)O)nc3[C@H](Cc3cc(F)cc(F)c3)NC(=O)Cn3nc(Cl)c4c3C(F)(F)[C@@H]3C[C@H]43)c21 [Compound 149, N—((S)-1-(3-(4-chloro-1-methyl-3-(methylsulfonamido)-1H-indazol-7-yl)-6-(3-hydroxy-3-methylbut-1-yn-1-yl)pyridin-2-yl)-2-(3,5-difluorophenyl)ethyl)-2-((3bS,4aR)-3-chloro-5,5-difluoro-3b,4,4a,5-tetrahydro-1H-cyclopropa[3,4]cyclopenta[1,2-c]pyrazol-1-yl)acetamide]	26.7	86	86
Cn1nc(NS(N)(=O)=O)c2c(Cl)ccc(-c3ccc(C#CC(C)(C)O)nc3[C@H](Cc3cc(F)cc(F)c3)NC(=O)Cn3nc(C(F)F)c4c3C(F)(F)CCC4(F)F)c21 [Compound 122, (S)—N-(1-(3-(4 chloro-1-methyl-3-(sulfamoylamino)-1H-indazol-7-yl)-6-(3-hydroxy-3-methylbut-1-yn-1-yl)pyridin-2-yl)-2-(3,5-difluorophenyl)ethyl)-2-(3-(difluoromethyl)-4,4,7,7-tetrafluoro-4,5,6,7-tetrahydro-1H-indazol-1-yl)acetamide]	9.07	88	88
